{
  "source": "PubChem BioAssay AID651796",
  "about": "(The Scripps Research Institute Molecular Screening Center, 2012)",
  "target": "Nuclear receptor coactivator 1 (Homo sapiens) (UniProt Q15788)",
  "sequence (Q15788 whole entry, looked up)": "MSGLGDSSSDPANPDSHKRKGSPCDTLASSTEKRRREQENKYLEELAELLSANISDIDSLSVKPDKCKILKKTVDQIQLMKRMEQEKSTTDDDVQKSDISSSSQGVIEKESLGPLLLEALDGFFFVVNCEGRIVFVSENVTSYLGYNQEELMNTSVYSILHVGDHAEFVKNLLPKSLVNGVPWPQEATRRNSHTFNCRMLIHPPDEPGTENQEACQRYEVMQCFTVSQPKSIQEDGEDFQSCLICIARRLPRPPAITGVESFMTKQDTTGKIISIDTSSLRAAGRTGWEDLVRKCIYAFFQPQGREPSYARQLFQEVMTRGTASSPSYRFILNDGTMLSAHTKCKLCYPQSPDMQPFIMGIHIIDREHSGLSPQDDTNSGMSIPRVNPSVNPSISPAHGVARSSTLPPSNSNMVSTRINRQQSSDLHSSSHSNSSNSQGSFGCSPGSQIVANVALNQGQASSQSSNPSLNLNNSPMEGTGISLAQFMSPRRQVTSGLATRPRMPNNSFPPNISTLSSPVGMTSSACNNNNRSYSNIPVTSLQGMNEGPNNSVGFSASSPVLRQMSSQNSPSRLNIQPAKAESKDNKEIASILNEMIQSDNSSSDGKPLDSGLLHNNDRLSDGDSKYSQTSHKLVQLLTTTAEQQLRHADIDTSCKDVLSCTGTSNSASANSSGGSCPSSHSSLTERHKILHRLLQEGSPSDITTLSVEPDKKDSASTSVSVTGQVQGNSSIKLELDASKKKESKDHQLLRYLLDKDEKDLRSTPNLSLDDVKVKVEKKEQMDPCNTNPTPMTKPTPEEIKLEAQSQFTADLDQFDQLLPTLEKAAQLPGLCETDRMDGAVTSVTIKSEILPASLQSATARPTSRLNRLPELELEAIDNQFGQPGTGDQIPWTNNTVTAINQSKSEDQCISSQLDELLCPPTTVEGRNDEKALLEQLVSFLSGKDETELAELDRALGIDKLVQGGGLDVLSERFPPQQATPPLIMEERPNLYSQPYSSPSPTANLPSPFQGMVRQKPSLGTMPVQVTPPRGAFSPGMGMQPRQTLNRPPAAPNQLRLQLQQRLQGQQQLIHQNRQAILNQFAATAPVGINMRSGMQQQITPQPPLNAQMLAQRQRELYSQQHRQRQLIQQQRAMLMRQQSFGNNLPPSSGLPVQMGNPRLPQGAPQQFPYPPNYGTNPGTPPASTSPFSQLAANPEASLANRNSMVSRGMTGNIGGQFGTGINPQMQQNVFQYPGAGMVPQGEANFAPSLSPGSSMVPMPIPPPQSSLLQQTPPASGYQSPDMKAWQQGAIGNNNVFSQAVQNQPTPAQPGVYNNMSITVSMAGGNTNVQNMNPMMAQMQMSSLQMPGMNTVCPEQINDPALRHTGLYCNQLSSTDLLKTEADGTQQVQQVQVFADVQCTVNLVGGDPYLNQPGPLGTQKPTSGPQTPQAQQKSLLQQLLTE",
  "assay": "SRC1 (NCOA1) coactivator inhibitors, late-stage follow-up, cell-based, luminescence (AID 651796)",
  "conditions": "cell-based SRC1 reporter",
  "note": "Calls of active or inactive are those of the source. How the calls were made is not given here.",
  "data": [
    {"molecule": "COc1ccc(NC(=O)CN(C)C(=O)C2(c3ccccc3)CCCC2)cc1", "values": [
      {"measurement": "IC50", "result": 9.94, "unit": "µM"}
    ]},
    {"molecule": "COc1ccc(Nc2ncnc3ccc(Br)cc23)c(OC)c1", "values": [
      {"measurement": "IC50", "result": "inactive"}
    ]}
  ]
}
